Blank lines part the entries; values can stand above or below the compound they belong to. The source made the active and inactive calls.
What was measured:
[1] = molecular target: T1, High affinity choline transporter 1 (Homo sapiens, UniProt Q9GZV3); assay: human choline transporter blockers, potency – cell-based, 5-point CRC, membrane potential dye, dose response (AID 504840); assay type: functional
T1 sequence (Q9GZV3 whole entry): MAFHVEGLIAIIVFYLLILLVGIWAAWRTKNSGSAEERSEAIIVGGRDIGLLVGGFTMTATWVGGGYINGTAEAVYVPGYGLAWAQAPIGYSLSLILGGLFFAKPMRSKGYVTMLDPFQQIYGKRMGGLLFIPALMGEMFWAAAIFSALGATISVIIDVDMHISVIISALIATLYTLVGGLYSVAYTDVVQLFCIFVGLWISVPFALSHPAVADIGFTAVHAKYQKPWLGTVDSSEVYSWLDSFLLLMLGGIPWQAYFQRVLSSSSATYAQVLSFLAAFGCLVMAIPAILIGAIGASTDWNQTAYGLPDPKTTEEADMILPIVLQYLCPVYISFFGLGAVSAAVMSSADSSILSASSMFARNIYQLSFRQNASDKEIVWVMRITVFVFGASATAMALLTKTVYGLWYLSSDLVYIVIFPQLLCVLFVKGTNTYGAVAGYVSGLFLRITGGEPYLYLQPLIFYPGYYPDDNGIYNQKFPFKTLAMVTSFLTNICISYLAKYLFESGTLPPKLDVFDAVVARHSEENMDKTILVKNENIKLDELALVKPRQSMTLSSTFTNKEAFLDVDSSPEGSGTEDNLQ

[2] = molecular target: T1, High affinity choline transporter 1; assay: human choline transporter blockers, potency – cell-based, 10-point CRC, membrane potential dye, dose response (AID 588401); assay type: functional;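 further: membrane potential dye fluorescence of choline-evoked depolarization via CHT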
[3] = molecular target: Hepatocyte nuclear factor 4-alpha (Homo sapiens, UniProt P41235); assay type: functional, cell-based;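 further: biochemical luminescence-based dose-response counterscreen measuring inhibition of HNF4 dimerization, run alongside a screen for blockers of ABHD5–perilipin-5 interaction; split luciferase complementation of HNF4 fusion proteins in cell lysate measuring dimerization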
Sequence of Hepatocyte nuclear factor 4-alpha (P41235 whole entry, the tested form may be a part): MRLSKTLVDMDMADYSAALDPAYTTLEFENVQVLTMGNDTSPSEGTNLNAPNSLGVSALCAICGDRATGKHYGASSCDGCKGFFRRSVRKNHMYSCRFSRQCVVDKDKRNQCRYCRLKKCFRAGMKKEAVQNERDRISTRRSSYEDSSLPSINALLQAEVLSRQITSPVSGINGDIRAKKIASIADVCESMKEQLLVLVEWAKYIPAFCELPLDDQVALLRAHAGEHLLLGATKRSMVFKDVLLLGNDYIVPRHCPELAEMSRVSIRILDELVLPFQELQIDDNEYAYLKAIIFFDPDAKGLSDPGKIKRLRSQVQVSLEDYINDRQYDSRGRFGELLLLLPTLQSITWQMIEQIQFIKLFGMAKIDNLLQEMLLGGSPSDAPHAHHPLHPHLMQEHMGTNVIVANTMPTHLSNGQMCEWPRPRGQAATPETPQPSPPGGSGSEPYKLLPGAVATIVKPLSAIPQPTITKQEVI

[4] = Trypanosoma cruzi growth suppression in host cells – NIH3T3 host cells, beta-gal luminescence, confirmation (AID 2044); assay type: functional, cell-based;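 further: intracellular parasites grown in NIH/3T3 mouse fibroblasts as host cells; luminescent beta-galactosidase reporter signal from transgenic T. cruzi replicating inside host cells; inhibitors lower the luminescence signal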
[5] = NIH3T3 cell viability loss – ATP luminescence, mouse fibroblasts, counter-screen, dose response (AID 2010); assay type: functional, cell-based;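 further: cells exposed to compound for about 90 hours before reading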
[6] = molecular target: FAD-linked sulfhydryl oxidase ALR (Homo sapiens, UniProt P55789); assay: ALR-catalysed DTT oxidation blockers – biochemical, H2O2 detection, luminescence, cherry-pick, dose response (AID 493248)
Sequence of FAD-linked sulfhydryl oxidase ALR (P55789 whole entry): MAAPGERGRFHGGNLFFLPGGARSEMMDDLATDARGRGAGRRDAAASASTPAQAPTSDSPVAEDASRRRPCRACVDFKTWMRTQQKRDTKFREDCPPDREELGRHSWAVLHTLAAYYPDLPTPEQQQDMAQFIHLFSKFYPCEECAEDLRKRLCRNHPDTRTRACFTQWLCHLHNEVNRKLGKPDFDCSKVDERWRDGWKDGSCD

Protein skinhead-1 = molecular target: T2, Protein skinhead-1 (Caenorhabditis elegans, UniProt P34707); assay type: functional
T2 sequence (P34707 whole entry): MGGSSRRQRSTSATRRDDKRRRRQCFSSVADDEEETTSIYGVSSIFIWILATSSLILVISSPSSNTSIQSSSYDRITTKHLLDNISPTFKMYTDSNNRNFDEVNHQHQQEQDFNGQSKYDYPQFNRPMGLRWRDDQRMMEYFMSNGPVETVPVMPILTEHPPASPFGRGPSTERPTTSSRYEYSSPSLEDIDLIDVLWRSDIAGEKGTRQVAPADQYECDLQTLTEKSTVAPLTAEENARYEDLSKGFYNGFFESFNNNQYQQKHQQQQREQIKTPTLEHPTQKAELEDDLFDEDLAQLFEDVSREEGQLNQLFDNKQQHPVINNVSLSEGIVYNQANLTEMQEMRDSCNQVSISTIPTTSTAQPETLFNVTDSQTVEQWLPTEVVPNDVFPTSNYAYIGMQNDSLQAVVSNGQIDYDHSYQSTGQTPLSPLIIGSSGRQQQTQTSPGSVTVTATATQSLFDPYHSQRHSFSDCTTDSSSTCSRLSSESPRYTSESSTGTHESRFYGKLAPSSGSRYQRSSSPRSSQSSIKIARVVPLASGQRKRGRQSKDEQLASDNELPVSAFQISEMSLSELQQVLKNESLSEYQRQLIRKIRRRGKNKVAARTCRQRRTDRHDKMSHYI

[7] = molecular target: DNA repair and recombination protein RAD54-like (Homo sapiens, UniProt Q92698); assay: RAD54 Holliday junction migration blockers – biochemical, fluorescence, cherry-picked samples, dose series, confirmation (AID 651657); assay type: functional
Sequence of DNA repair and recombination protein RAD54-like (Q92698 whole entry): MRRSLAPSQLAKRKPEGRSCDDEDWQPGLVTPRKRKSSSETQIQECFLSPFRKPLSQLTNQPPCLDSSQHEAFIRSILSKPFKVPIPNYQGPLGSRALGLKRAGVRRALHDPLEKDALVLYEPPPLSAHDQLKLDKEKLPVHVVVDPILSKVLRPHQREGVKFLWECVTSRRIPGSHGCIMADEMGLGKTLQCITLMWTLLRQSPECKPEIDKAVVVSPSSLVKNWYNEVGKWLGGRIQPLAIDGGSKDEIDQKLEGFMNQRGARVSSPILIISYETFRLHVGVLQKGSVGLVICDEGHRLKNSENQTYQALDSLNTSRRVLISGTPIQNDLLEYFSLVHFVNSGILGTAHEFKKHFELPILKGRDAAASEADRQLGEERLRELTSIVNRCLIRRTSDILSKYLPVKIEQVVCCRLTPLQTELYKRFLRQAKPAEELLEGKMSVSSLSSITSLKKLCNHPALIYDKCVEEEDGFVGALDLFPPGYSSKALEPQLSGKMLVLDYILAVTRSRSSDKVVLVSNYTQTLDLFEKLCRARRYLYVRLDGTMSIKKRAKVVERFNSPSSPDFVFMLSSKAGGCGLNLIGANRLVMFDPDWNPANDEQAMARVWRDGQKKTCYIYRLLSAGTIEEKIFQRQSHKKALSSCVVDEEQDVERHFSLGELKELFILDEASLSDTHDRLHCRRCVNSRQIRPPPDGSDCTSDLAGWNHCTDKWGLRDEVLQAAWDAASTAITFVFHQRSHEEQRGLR

[8] = molecular target: T3, DNA repair protein RAD52 homolog (Homo sapiens, UniProt P43351); assay type: functional, biochemical
T3 sequence (P43351 whole entry): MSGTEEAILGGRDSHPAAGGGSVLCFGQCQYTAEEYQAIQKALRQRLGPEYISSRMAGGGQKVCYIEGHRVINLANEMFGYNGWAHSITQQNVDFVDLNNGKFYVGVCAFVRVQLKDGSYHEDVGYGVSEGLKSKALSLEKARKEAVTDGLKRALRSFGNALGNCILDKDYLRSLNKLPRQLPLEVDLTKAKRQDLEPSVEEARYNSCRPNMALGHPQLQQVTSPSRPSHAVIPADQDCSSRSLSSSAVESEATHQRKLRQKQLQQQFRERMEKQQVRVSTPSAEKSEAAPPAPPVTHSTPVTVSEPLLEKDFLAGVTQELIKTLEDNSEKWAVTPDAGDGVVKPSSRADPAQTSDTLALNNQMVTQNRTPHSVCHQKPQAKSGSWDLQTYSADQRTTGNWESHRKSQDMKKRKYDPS

[9] = viability of PTEN-deleted HCT116 cells – cell-based, HCT116 PTEN knockout, dose response (AID 1047); assay type: functional;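 further: HCT116 colon tumor cells with PTEN knocked out; cells exposed to compound for 60 hours before readout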
[10] = viability of HCT116 lacking mutant beta-catenin – cell-based, human colon tumor, dose response (AID 1045); assay type: functional;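 further: HCT116 colon tumor cells with beta catenin knocked out; cells exposed to compound for 60 hours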
[11] = molecular target: Heat shock protein HSP 90-alpha (Homo sapiens, UniProt P07900); assay type: functional, organism-based
H9c2 = assay: cells; assay type: functional, cell-based; conditions: Rattus norvegicus, H9c2, Myocardium;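 further: confirmatory concentration-response retest of ultra-high-throughput screening hits for modulation of myocardial damage; cell death induced by hydrogen peroxide oxidative stress; compound pretreatment for 60 min then peroxide exposure for 2 h; potency is for protecting the cells against peroxide damage rather than for killing them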
Interleukin-8 [12] = molecular target: T4, Interleukin-8 (Homo sapiens, UniProt P10145); assay: Dose Response confirmation of uHTS small molecule hits for cystic fibrosis induced NFkb Inhibitors in a TNFa-induced IL8 counterscreen.; assay type: functional; conditions: read-out: IC50_Mean
T4 sequence (P10145 whole entry): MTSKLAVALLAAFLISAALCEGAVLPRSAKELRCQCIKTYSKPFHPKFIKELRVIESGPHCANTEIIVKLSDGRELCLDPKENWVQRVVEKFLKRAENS

Interleukin-8 [13] = molecular target: T4, Interleukin-8; assay: Dose Response confirmation of uHTS small molecule hits for cystic fibrosis induced NFkb Inhibitors in a PAF-induced IL8 counterscreen.; assay type: functional; conditions: read-out: IC50_Mean
Melanocortin receptor 4 = Melanocortin receptor 4 (Homo sapiens, UniProt P32245); assay type: functional, cell-based;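 further: Cell-based assay with luminescence read-out, confirmatory dose-response testing for agonist activity of biased ligands at MC4R; human U2OS cells with tagged receptor and beta-arrestin; potency of agonists that increase receptor coupling to beta-arrestin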
Sequence of Melanocortin receptor 4 (P32245 whole entry): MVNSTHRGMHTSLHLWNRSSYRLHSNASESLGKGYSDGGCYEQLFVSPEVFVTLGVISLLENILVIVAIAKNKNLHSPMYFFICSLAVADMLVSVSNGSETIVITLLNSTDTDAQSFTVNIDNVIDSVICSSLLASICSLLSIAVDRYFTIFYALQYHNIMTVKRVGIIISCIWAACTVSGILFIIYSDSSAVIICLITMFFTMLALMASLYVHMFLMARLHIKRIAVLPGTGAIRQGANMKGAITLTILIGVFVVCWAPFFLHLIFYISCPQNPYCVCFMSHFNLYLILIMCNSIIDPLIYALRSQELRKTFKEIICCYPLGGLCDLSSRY

[14] = activation of miR-122 Renilla sensor silencing – cell-based, Huh7 psiCHECK-miR122, Renilla luciferase, cherry-picked, dose response (AID 651956); assay type: functional;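 further: huh7 hepatoma cells stably carrying a psiCHECK-2 miR-122 sensor plasmid; renilla luciferase signal reporting endogenous miR-122 activity after 48 h compound exposure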
CHO = CHO cell viability loss, potency – luminescence, cytotoxicity control for TLR9-MyD88 binding inhibitor project, dose response (AID 588339); assay type: functional, cell-based, hamster; conditions: Cricetulus griseus;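 further: CHO cells stably coexpressing TLR9 and MyD88 fusions from primary screen; compound exposure lasted 48 hours before viability readout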
Beta Lactamase [15] = molecular target: T5, Beta Lactamase (Pseudomonas aeruginosa, UniProt Q932Y6); assay: BLA reporter interference, concentration series – BLA reporter cells, FRET fluorescence, artefact control for TLR9-MyD88 binding inhibitor project, dose response (AID 588341); assay type: cell-based;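 further: cell based assay in CHO-K1 cells stably expressing beta-lactamase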
T5 sequence (Q932Y6 whole entry): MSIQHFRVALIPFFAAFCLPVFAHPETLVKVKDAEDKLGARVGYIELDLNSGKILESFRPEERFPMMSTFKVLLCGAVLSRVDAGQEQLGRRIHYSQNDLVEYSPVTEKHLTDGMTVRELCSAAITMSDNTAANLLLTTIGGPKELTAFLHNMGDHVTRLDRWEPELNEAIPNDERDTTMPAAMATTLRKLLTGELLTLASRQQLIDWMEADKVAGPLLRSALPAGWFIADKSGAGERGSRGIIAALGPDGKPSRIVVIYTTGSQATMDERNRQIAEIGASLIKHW

Large T antigen = Large T antigen (Simian virus 40, UniProt P03070); assay type: functional, Betapolyomavirus macacae;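 further: Confirmatory-stage PubChem screen for compounds that inhibit SV40 T antigen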
Sequence of Large T antigen (P03070 whole entry, the tested form may be a part): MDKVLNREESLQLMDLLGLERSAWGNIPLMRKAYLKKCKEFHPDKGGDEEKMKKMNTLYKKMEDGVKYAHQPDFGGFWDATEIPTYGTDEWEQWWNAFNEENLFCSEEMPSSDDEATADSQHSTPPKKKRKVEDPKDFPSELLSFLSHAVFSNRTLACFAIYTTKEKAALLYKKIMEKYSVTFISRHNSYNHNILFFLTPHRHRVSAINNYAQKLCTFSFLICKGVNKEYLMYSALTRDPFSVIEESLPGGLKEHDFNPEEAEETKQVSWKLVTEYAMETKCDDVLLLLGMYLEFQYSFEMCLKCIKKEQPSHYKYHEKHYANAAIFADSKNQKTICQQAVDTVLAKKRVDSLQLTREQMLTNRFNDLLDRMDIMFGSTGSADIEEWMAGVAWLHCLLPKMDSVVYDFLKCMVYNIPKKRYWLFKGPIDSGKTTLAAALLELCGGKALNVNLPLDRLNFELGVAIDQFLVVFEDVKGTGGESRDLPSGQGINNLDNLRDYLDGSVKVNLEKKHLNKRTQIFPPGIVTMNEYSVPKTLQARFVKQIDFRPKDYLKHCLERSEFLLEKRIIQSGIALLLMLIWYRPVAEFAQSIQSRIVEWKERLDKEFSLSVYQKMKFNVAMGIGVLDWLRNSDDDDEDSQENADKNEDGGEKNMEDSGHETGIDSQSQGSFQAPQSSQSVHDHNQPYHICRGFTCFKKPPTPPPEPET

[16] = molecular target: Photoreceptor-specific nuclear receptor (Homo sapiens, UniProt Q9Y5X4); assay type: functional, cell-based;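 further: CHO-S cells with Gal4-NCOR and VP16-NR2E3 two-hybrid luciferase reporter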
[17] = molecular target: Ras and Rab interactor 1/Tyrosine-protein kinase ABL1 (Homo sapiens, UniProt P00519+Q13671); assay type: functional;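 further: biochemical TR-FRET dose-response test measuring inhibition of binding between Rin1 and Abl proteins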
Sequence of Ras and Rab interactor 1/Tyrosine-protein kinase ABL1 (P00519 whole entry): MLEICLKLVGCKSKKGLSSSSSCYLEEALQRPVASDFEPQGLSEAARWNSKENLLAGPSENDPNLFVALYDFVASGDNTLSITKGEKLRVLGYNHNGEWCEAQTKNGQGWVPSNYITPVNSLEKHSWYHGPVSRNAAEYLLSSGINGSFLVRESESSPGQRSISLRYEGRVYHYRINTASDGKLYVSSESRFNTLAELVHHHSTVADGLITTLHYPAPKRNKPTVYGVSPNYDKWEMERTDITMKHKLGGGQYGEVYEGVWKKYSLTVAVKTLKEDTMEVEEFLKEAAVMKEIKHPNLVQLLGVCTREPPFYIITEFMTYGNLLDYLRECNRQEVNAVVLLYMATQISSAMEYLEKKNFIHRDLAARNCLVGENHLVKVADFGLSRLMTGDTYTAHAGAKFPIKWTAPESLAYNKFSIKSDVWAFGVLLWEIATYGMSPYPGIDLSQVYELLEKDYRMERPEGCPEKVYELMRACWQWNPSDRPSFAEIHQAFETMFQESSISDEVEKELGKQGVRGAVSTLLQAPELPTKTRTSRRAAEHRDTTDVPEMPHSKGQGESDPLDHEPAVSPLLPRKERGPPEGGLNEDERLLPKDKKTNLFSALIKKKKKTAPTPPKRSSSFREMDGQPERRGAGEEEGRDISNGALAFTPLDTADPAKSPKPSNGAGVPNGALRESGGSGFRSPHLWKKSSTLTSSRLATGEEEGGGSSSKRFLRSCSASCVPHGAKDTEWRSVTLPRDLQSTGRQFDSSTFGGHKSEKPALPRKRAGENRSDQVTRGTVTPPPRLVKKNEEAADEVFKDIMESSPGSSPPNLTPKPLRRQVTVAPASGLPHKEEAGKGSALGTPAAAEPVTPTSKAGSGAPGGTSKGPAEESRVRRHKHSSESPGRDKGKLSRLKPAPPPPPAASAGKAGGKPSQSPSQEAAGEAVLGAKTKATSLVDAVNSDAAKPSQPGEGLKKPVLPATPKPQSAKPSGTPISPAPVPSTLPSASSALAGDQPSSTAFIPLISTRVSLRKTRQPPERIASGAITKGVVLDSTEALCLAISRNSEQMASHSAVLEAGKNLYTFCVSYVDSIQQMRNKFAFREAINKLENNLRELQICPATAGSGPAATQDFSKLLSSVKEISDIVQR
Sequence of Ras and Rab interactor 1/Tyrosine-protein kinase ABL1 (Q13671 whole entry): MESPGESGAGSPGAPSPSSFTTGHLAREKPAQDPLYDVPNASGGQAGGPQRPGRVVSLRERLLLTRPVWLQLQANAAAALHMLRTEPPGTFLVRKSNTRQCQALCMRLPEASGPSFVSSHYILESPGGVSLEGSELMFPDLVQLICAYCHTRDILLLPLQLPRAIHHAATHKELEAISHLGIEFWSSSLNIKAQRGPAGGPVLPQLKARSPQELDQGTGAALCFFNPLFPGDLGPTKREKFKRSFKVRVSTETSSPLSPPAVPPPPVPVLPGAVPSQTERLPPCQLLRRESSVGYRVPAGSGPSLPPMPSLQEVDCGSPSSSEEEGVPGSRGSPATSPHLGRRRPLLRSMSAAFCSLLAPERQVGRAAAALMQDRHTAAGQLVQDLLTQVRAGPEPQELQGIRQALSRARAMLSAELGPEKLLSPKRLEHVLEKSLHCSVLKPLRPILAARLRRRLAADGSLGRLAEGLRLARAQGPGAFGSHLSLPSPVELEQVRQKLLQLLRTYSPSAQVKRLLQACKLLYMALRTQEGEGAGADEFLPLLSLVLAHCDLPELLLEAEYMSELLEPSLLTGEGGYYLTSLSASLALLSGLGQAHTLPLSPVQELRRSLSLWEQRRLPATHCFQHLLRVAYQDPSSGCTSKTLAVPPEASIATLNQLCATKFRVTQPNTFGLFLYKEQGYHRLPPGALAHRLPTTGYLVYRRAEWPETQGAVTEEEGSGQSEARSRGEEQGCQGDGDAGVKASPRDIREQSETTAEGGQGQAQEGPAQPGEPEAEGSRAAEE

[18] = mitochondrial function rescue without frataxin homolog – Friedreich's ataxia, plus single-dose screen, dose response (AID 1465); assay type: functional;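 further: yeast depleted of Yfh1p frataxin homolog grown on glycerol needing respiration; WST-1 tetrazolium dye reduction as measure of cellular dehydrogenase metabolic activity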
[19] = molecular target: T6, Apoptotic protease-activating factor 1 (Homo sapiens, UniProt O14727); assay: SAR analysis of small molecule inhibitors of Apaf-1 in a Fluorescent assay.; assay type: functional; conditions: read-out: IC50_Mean
T6 sequence (O14727 whole entry): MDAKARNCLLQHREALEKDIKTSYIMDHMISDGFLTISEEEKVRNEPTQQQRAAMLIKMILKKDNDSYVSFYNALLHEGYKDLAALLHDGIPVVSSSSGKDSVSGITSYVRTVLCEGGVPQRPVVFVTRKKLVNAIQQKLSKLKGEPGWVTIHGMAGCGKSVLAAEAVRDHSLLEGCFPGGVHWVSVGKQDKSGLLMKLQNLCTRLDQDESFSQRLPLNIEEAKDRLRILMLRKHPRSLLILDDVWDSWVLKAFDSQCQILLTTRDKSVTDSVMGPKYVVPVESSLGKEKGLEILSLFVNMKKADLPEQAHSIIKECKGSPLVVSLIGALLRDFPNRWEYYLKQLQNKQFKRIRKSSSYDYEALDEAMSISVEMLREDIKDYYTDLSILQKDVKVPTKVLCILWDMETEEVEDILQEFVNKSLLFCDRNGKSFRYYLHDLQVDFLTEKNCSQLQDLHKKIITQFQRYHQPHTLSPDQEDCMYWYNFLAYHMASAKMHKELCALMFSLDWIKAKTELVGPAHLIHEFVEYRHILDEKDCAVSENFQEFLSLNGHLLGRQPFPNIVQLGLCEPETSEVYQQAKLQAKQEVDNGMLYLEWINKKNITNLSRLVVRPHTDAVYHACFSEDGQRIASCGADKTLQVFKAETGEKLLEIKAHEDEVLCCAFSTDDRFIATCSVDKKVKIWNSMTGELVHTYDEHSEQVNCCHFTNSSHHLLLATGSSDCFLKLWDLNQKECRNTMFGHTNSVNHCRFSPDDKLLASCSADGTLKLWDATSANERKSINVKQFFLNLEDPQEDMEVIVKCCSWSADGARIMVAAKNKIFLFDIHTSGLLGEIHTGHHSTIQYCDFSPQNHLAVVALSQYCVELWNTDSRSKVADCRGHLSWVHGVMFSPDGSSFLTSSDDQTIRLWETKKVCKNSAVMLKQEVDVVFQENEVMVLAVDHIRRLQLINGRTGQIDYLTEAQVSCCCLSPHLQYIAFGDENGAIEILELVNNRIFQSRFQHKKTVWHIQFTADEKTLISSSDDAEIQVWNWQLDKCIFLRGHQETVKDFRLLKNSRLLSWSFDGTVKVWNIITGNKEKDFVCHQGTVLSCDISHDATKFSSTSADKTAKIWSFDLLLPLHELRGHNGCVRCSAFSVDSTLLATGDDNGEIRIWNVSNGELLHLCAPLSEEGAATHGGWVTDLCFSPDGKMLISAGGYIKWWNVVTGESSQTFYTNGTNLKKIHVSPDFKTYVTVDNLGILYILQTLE

[20] = bead-based luminescence quenchers, dual-tagged ARNT – biochemical, AlphaScreen, cherry-pick, artefact control for ARNT-TACC3 interaction inhibitor project, dose response (AID 651705); assay type: functional;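 further: AlphaScreen bead proximity signal that flags compounds interfering with the detection technology; potency reflects signal decrease which marks the compound as an assay artifact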
[21] = Fluorescence-based cell-based high throughput dose response assay for inhibitors of the interaction of nucleotide-binding oligomerization domain containing 2 (NOD2) and the receptor-interacting serine-threonine kinase 2 (RIPK2).; assay type: functional; conditions: Homo sapiens
Beta Lactamase [22] = molecular target: T5, Beta Lactamase; assay: BLA reporter interference, concentration series – BLA reporter cells, FRET fluorescence, artefact control for NOD2-RIPK2 interaction inhibitor project, dose response (AID 651552); assay type: functional, cell-based

SMILES: O=C(/C=C/c1ccc2c(c1)OCCCO2)c1ccccc1O
- IC50 [3]: 5.6 µM (active)

SMILES: Oc1cccc(Nc2c3ccccc3nc3ccccc23)c1
- EC50 [4]: 0.672 µM (active)
- EC50 [5]: 21.8 µM (active)
- AC50 [6]: 2.66 µM (active)
- IC50 (Protein skinhead-1): > 100 µM (inactive)
- AC50 [7]: 4.49 µM (active)
- AC50 [8]: 3.09 µM (active)

SMILES: CCOc1ccc(NCc2cc3c(C(C)(C)C)nn(-c4ccccc4)c3nc2O)cc1
- EC50 [9]: 9.36 µM (active)
- EC50 [10]: 13.5 µM (active)
- AC50 [11]: 8.84 µM (active)
- IC50 (H9c2): 24.2 µM (active)
- IC50 (Interleukin-8 [12]): > 79 µM (inactive)
- IC50 (Interleukin-8 [13]): 0.628 µM (active)

SMILES: Cc1ccc(O)c(C(=O)/C=C/c2ccc3c(c2)OCCCO3)c1
- EC50 (Melanocortin receptor 4): > 89.2 µM (inactive)
- IC50 [3]: 6.11 µM (active)

SMILES: Cc1ccc(-n2ncc(C(=O)Nc3cc(Cl)ccc3C)c2C2CCNCC2)cc1C
- AC50 [14]: 51.5 µM (active)

SMILES: CC(=O)c1sc2nc(-c3ccc(C)cc3)c3c(c2c1N)CCCC3
- IC50 (CHO): 36.7 µM (inactive)
- IC50 (Beta Lactamase [15]): 3.73 µM (active)

SMILES: Cc1ccc(S(=O)(=O)N2[C@@H](c3ccc(Cl)cc3)C(C(=O)O)=CC[C@H]2c2ccc(C(C)C)cc2)cc1
- IC50 (Large T antigen): 60.4 µM (active)
- AC50 [6]: 10.3 µM (active)
- IC50 [16]: 5.56 µM (active)

SMILES: C[N+]1(C)CCOC(O)(c2ccc(-c3ccc(C4(O)C[N+](C)(C)CCO4)cc3)cc2)C1 (stereo not given)
- IC50 [1]: 0.296 µM (active)
- IC50 [2]: 0.127 µM (active)
- AC50 [8]: 7.78 µM (active)

SMILES: O=C(COc1nsnc1N1CCOCC1)N/N=C/c1ccccc1O
- EC50 [9]: 28.5 µM (active)
- EC50 [10]: 23.7 µM (active)
- AC50 [20]: 107 µM (active)

SMILES: C[C@@H]1CN([C@H](C)CO)S(=O)(=O)c2ccc(C3=CCCC3)cc2O[C@@H]1CN(C)C(=O)c1cnccn1
- AC50 [14]: 13.5 µM (active)

SMILES: CCCCCN1C(=O)c2cc(OC)ccc2[C@@]2(C(=O)OCC)Cc3cc(Cl)ccc3[C@@H]12
- IC50 [21]: 2.04 µM (active)
- IC50 (Beta Lactamase [22]): 18.8 µM (inactive)

Continued, in another order:

- IC50 [1]: 8.58 µM (active)
- IC50 [2]: 6.48 µM (active)
SMILES: Cc1ccc(C(C)NC(=O)C2CCCC2)cc1C (stereo not given)

- AC50 [7]: 12.9 µM (active)
- AC50 [8]: 4.91 µM (active)
SMILES: COc1ncccc1-c1cc2nc(NCCCN(C)C)n(C)c(=O)c2s1

- IC50 [17]: > 73.5 µM (inactive)
SMILES: Oc1nccc(N/N=C/c2ccccc2)n1

- IC50 (Interleukin-8 [12]): > 79 µM (inactive)
- IC50 (Interleukin-8 [13]): 3.4 µM (active)
SMILES: Sc1nnc(-c2ccncc2)n1/N=C/C(Cl)=C\c1ccccc1
- EC50 [18]: > 100 µM (active)

- IC50 [19]: 13.7 µM (active)
SMILES: CCN(CC)CCOC(=O)c1ccc(N/C=C(\C#N)c2nc(-c3cccs3)cs2)cc1

- IC50 [19]: 14.7 µM (active)
SMILES: CCN(CC)CCOC(=O)c1ccc(N/C=C(\C#N)c2nc(-c3ccc(Br)cc3)cs2)cc1

Reference: ChEMBL document CHEMBL1201862, “PubChem BioAssay data set” (2004)
